Patent US9023809B2, “Phenylalanine dipeptide derivatives, compositions and use thereof” (The Key Laboratory of Chemistry For Natural Products of …, priority 2008, dated 2015)
Values after ≈ are worked out from the molar mass of the structure shown. Values joined by “and” are separate entries in the source; they are usually repeats but may differ in a detail not shown here. Equal entries are not always repeated. *1 amine or outer side, *2 acyl side, *3 side chain or, on linkers, in order; H or OH if unused. Where a SMILES comes first, the peptide text is derived from it. [ ]: non-standard residue; d: D form. The star is where a group is joined. Tyr(3-NO2) = N[C@@H](Cc1ccc(O)c([N+](=O)[O-])c1)C(=O)O; Phe(4-NO2) = N[C@@H](Cc1ccc([N+](=O)[O-])cc1)C(=O)O; Phe(4-NH2) = Nc1ccc(C[C@H](N)C(=O)O)cc1; Suc = O=C(CCC(=O)[*:2])[*:1]; 4Abz = Nc1ccc(C(=O)O)cc1; Propionyl = CCC(=O)*; Bz = O=C(c1ccccc1)*; ClAc = O=C(CCl)*

Columns and labels:
2.2.15 cells = assay: Cytotoxicity (TC50, median toxic concentration) in 2.2.15 cells; assay type: cell-based
Description: Cell control wells were simultaneously set up. […] IC50 and SI were calculated, respectively.

COC(=O)[C@H](Cc1ccccc1)NC(=O)[C@H](Cc1ccccc1)NC(=O)c1ccc(O)cc1
melting point: 151 to 153 °C

COC(=O)[C@H](Cc1ccccc1)NC(=O)[C@H](Cc1ccc(O)cc1)NC(=O)c1ccc([N+](=O)[O-])cc1
melting point: 212 to 214 °C

COC(=O)[C@H](Cc1ccccc1)NC(=O)[C@H](Cc1ccc(O)cc1)NC(=O)c1ccc(C)cc1
melting point: 190 to 192.5 °C

O=C(N[C@@H](Cc1ccc(O)cc1)C(=O)N[C@H](CO)Cc1ccccc1)c1cccc([N+](=O)[O-])c1
melting point: 225.5 to 227 °C

COC(=O)[C@H](Cc1ccccc1)NC(=O)[C@H](Cc1ccccc1)NCc1ccncc1
melting point: 174 to 175 °C

COC(=O)[C@H](Cc1ccc([N+](=O)[O-])cc1)NC(=O)[C@H](Cc1ccccc1)NCc1ccncc1
melting point: 224.5 to 225.5 °C

COC(=O)[C@H](Cc1ccccc1)NC(=O)[C@H](Cc1ccc(O)cc1)NCc1ccncc1
melting point: 206.5 to 209 °C

COC(=O)[C@H](Cc1ccc(NC(C)=O)cc1)NC(=O)[C@H](Cc1ccccc1)NC(=O)c1ccc(C)cc1
melting point: 221.5 to 222 °C

COC(=O)[C@H](Cc1ccccc1)NC(=O)[C@H](Cc1ccccc1)NC(=O)c1ccc(NC(C)=O)cc1 (Ac-[4Abz]-Phe-Phe-OMe)
melting point: 208 to 209.5 °C

COC(=O)[C@H](Cc1ccccc1)NC(=O)[C@H](Cc1ccc(O)cc1)NC(=O)c1ccc(NC(C)=O)cc1 (Ac-[4Abz]-Tyr-Phe-OMe)
melting point: 225 to 226 °C

COC(=O)[C@H](Cc1ccccc1)NC(=O)[C@H](Cc1ccc(O)cc1)NC(=O)c1ccccc1 (Bz-Tyr-Phe-OMe)
melting point: 200 to 202 °C

COC(=O)[C@H](Cc1ccccc1)NC(=O)[C@H](Cc1ccc(O)c([N+](=O)[O-])c1)NC(=O)c1ccccc1 (Bz-[Tyr(3-NO2)]-Phe-OMe)
melting point: 201 to 202.5 °C

COC(=O)[C@H](Cc1ccccc1)NC(=O)[C@H](Cc1ccccc1)NC(=O)c1ccc(NC(=O)CCl)cc1 ({ClAc-4Abz}-Phe-Phe-OMe)
melting point: 222.5 to 224.5 °C

COC(=O)[C@H](Cc1ccccc1)NC(=O)[C@H](Cc1ccccc1)NC(=O)c1ccccc1 [Example 01, methyl N-(N-benzoyl-L-phenylalanyl)-L-phenylalaninate] (Bz-Phe-Phe-OMe)
TC50 (2.2.15 cells): 1101.11 µg/mL (≈ 2560 µM)

O=C(N[C@@H](Cc1ccccc1)C(=O)N[C@H](CO)Cc1ccccc1)c1ccccc1 [Example 02, N-(N-benzoyl-L-phenylalanyl)-L-phenylalaninol]
TC50 (2.2.15 cells): 231.12 µg/mL (≈ 574 µM)

O=C(N[C@@H](Cc1ccc([N+](=O)[O-])cc1)C(=O)N[C@H](CO)Cc1ccccc1)c1ccccc1 [Example 06, N-(N-benzoyl-4-nitro-L-phenylalanyl)-L-phenylalaninol]
melting point: 196 to 199 °C
TC50 (2.2.15 cells): 53.42 µg/mL (≈ 119 µM)

O=C(N[C@@H](Cc1ccccc1)C(=O)N[C@H](CO)Cc1ccccc1)c1ccccc1Cl [Example 08, N-(N-2-chloro-benzoyl-L-phenylalanyl)-L-phenylalaninol]
TC50 (2.2.15 cells): 166.70 µg/mL (≈ 382 µM)

COC(=O)[C@H](Cc1ccccc1)NC(=O)[C@H](Cc1ccccc1)NC(=O)c1cccc(C)c1 [Example 09, methyl N-(N-3-methyl-benzoyl-L-phenylalanyl)-L-phenylalaninate]
melting point: 190 to 192 °C
TC50 (2.2.15 cells): 240.38 µg/mL (≈ 541 µM)

COC(=O)[C@H](Cc1ccccc1)NC(=O)[C@H](Cc1ccccc1)NC(=O)c1ccccc1Cl [Example 10, methyl N-(N-2-chloro-benzoyl-L-phenylalanyl)-L-phenylalaninate]
melting point: 152.5 to 153.5 °C
TC50 (2.2.15 cells): 288.68 µg/mL (≈ 621 µM)

COC(=O)[C@H](Cc1ccc(O)cc1)NC(=O)[C@H](Cc1ccccc1)NC(=O)c1ccccc1Cl [Example 11, methyl N-(N-2-chloro-benzoyl-L-phenylalanyl)-L-tyrosinate]
melting point: 164.5 to 167 °C
TC50 (2.2.15 cells): 500.00 µg/mL (≈ 1040 µM)

COC(=O)[C@H](Cc1ccccc1)NC(=O)[C@H](Cc1ccc([N+](=O)[O-])cc1)NC(=O)c1ccccc1 [Example 12, methyl N-(N-benzoyl-4-nitro-L-phenylalanyl)-L-phenylalaninate] (Bz-[Phe(4-NO2)]-Phe-OMe)
melting point: 202 to 204.5 °C
TC50 (2.2.15 cells): 388.03 µg/mL (≈ 816 µM)

Cc1ccc(C(=O)N[C@@H](Cc2ccccc2)C(=O)N[C@H](CO)Cc2ccccc2)cc1 [Example 13, N-(N-4-methyl-benzoyl-L-phenylalanyl)-L-phenylalaninol]
melting point: 200 to 202 °C
TC50 (2.2.15 cells): 776.06 µg/mL (≈ 1860 µM)

COC(=O)[C@H](Cc1ccc([N+](=O)[O-])cc1)NC(=O)[C@H](Cc1ccc([N+](=O)[O-])cc1)NC(=O)c1ccccc1 [Example 15, methyl N-(N-benzoyl-4-nitro-L-phenylalanyl)-4-nitro-L-phenylalaninate] (Bz-[Phe(4-NO2)]-[Phe(4-NO2)]-OMe)
melting point: 220 to 221.5 °C
TC50 (2.2.15 cells): 45.69 µg/mL (≈ 87.8 µM)

O=C(N[C@@H](Cc1ccccc1)C(=O)N[C@H](CO)Cc1ccc([N+](=O)[O-])cc1)c1ccccc1 [Example 16, N-(N-benzoyl-L-phenylalanyl)-4-nitro-L-phenylalaninol]
melting point: 192 to 195 °C
TC50 (2.2.15 cells): 52.34 µg/mL (≈ 117 µM)

COC(=O)[C@H](Cc1ccc(O)cc1)NC(=O)[C@H](Cc1ccccc1)NC(=O)c1ccc(C)cc1 [Example 17, methyl N-(N-^4-methyl-benzoyl-L-phenylalanyl)-L-tyrosinate]
TC50 (2.2.15 cells): 465.23 µg/mL (≈ 1010 µM)

COC(=O)[C@H](Cc1ccc(O)cc1)NC(=O)[C@H](Cc1ccc([N+](=O)[O-])cc1)NC(=O)c1ccc(C)cc1 [Example 18, methyl N-(N-4-methyl-benzoyl-4-nitro-L-phenylalanyl)-L-tyrosinate]
melting point: 213 to 215 °C
TC50 (2.2.15 cells): 45.28 µg/mL (≈ 89.6 µM)

O=C(N[C@@H](Cc1ccc(O)cc1)C(=O)N[C@H](CO)Cc1ccccc1)c1ccccc1 [Example 21, N-(N-benzoyl-L-tyrosyl)-L-phenylalaninol]
melting point: 216 to 217.5 °C
TC50 (2.2.15 cells): 28.74 µg/mL (≈ 68.7 µM)

Cc1ccc(C(=O)N[C@@H](Cc2ccc(O)cc2)C(=O)N[C@H](CO)Cc2ccccc2)cc1 [Example 26, N-(N-4-methyl-benzoyl-L-tyrosyl)-L-phenylalaninol]
melting point: 193 to 195 °C
TC50 (2.2.15 cells): 472.10 µg/mL (≈ 1090 µM)

O=C(N[C@@H](Cc1ccccc1)C(=O)N[C@H](CO)Cc1ccccc1)c1ccc(O)cc1 [Example 27, N-(N-4-hydroxyl-benzoyl-L-phenylalanyl)-L-phenylalaninol]
melting point: 223 to 225 °C
TC50 (2.2.15 cells): 441.29 µg/mL and 456.75 µg/mL

COC(=O)[C@H](Cc1ccc(O)cc1)NC(=O)[C@H](Cc1ccccc1)NCc1ccncc1 [Example 46, methyl N-(N-isonicotinyl-L-phenylalanyl)-L-tyrosinate]
melting point: 216 to 217 °C

O=C(N[C@H](CO)Cc1ccccc1)[C@H](Cc1ccc(O)cc1)NCc1ccncc1 [Example 47, N-(N-isonicotinyl-L-tyrosyl)-L-phenylalaninol]
melting point: 210 to 212 °C
TC50 (2.2.15 cells): 256.78 µg/mL (≈ 633 µM)

CC(=O)Nc1ccc(C[C@H](NC(=O)c2ccccc2C(=O)[O-])C(=O)N[C@H](CO)Cc2ccccc2)cc1.[Na+] [Example 53, N-[N-(2-carboxyl-benzoyl)-4-acetamido-L-phenylalanyl]-L-phenylalaninol sodium salt]
TC50 (2.2.15 cells): 354.18 µg/mL

O=C(O)CCC(=O)OC[C@H](Cc1ccccc1)NC(=O)[C@H](Cc1ccccc1)NC(=O)c1ccccc1 [Example 56, N-(N-benzoyl-L-phenylalanyl)-O-(3-carboxyl-propionyl)-L-phenylalaninol]
TC50 (2.2.15 cells): 333.33 µg/mL (≈ 663 µM)

CCC(=O)Nc1ccc(C[C@H](NC(=O)c2ccc(Cl)cc2)C(=O)N[C@@H](Cc2ccccc2)C(=O)OC)cc1 [Example 70, methyl N-[N-(4-chloro-benzoyl)-4-propionamido-L-phenylalanyl]-L-phenylalaninate]
TC50 (2.2.15 cells): 17.81 µg/mL (≈ 33.2 µM)

CN(C)CC(=O)Nc1ccc(C(=O)N[C@@H](Cc2ccccc2)C(=O)N[C@H](CO)Cc2ccccc2)cc1 [Example 76, N-[N-4-(dimethylaino-acetamido)-benzoyl-L-phenylalanyl]-L-phenylalaninol]
TC50 (2.2.15 cells): 37.04 µg/mL (≈ 73.7 µM)

COC(=O)[C@H](Cc1ccccc1)NC(=O)[C@H](Cc1ccccc1)NC(=O)c1ccc(NC(=O)CN(C)C)cc1 [Example 81, methyl N-[N-4-(dimethylamino-acetamido)-benzoyl-L-phenylalanyl]-L-phenylalaninate]
TC50 (2.2.15 cells): 58.64 µg/mL (≈ 111 µM)

COC(=O)[C@H](Cc1ccccc1)NC(=O)[C@H](Cc1ccccc1)NC(=O)c1ccc(NC(=O)CN2CCCC2)cc1 [Example 82, methyl N-{N-[4-(1-pyrrolidyl)acetamido-benzoyl]-L-phenylalanyl}-L-phenylalaninate]
TC50 (2.2.15 cells): 59.19 µg/mL (≈ 106 µM)

O=C([O-])CCC(=O)Nc1ccc(C(=O)N[C@@H](Cc2ccccc2)C(=O)N[C@@H](Cc2ccccc2)C(=O)[O-])cc1.[Na+].[Na+] [Example 92, N-[N-4-(3-carboxyl-propionamido)-benzoyl-L-phenylalanyl]-L-phenylalanine sodium salt] ({Suc-4Abz}-Phe-Phe-OH)
TC50 (2.2.15 cells): 379.36 µg/mL

O=C(N[C@@H](Cc1ccc(O)cc1)C(=O)N[C@@H](Cc1ccccc1)C(=O)O)c1ccccc1 [Example 93, N-(N-benzoyl-L-tyrosyl)-L-phenylalanine] (Bz-Tyr-Phe-OH)
TC50 (2.2.15 cells): 577.35 µg/mL (≈ 1330 µM)

CCC(=O)Nc1ccc(C[C@H](NC(=O)[C@H](Cc2ccccc2)NC(=O)c2ccccc2)C(=O)O)cc1 [Example 94, N-(N-benzoyl-L-phenylalanyl)-4-propionamido-L-phenylalanine] (Bz-Phe-[Phe(4-NH2)](Propionyl)-OH)
TC50 (2.2.15 cells): 561.21 µg/mL (≈ 1150 µM)

CC(=O)Nc1ccc(C[C@H](NC(=O)[C@H](Cc2ccc(O)cc2)NC(=O)c2ccccc2)C(=O)[O-])cc1.[Na+] [Example 95, N-(N-benzoyl-L-tyrosyl)-4-acetamido-L-phenylalanine sodium salt] (Bz-Tyr-[Phe(4-NH2)](Ac)-OH)
TC50 (2.2.15 cells): 79.46 µg/mL

CC(=O)Nc1ccc(C[C@H](NC(=O)[C@H](Cc2ccc(O)cc2)NC(=O)c2ccc(C)cc2)C(=O)O)cc1 [Example 96, N-(N-4-methyl-benzoyl-L-tyrosyl)-4-acetamido-L-phenylalanine]
TC50 (2.2.15 cells): 199.67 µg/mL (≈ 397 µM)
